In ChEMBL document CHEMBL1944601, “N-(4-Substituted-benzoyl)-N'-(β-d-glucopyranosyl)ureas as inhibitors of glycogen phosphorylase: Synthesis and evaluation by kinetic, crystallographic, and molecular modelling methods” (Bioorg Med Chem, 2012):

These molecules were tested against T1, Glycogen phosphorylase, muscle form (Oryctolagus cuniculus, UniProt P00489).
T1 sequence (P00489 whole entry): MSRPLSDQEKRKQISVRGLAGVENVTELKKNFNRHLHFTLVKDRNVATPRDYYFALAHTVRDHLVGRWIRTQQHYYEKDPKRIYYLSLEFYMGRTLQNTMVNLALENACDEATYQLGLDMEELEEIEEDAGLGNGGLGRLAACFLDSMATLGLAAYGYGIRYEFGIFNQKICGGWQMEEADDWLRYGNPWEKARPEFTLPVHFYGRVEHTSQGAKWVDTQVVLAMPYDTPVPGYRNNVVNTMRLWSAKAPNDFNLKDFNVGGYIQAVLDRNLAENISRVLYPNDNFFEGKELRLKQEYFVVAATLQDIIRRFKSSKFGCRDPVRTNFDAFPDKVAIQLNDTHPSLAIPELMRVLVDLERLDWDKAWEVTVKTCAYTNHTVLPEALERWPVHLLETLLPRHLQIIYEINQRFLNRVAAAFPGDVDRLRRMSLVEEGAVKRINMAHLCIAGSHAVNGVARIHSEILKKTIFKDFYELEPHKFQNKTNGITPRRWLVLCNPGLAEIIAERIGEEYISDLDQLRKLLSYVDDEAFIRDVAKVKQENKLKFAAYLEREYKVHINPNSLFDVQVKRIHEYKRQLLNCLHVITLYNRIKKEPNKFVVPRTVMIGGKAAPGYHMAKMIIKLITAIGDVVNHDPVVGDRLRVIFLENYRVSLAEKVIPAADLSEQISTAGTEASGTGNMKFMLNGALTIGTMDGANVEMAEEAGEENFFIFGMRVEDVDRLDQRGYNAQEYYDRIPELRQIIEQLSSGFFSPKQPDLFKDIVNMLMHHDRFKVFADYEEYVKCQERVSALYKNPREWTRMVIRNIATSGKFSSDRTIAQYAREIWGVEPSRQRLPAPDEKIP
Description: (§1) Inhibition of rabbit muscle glycogen phosphorylase b assessed as inorganic phosphate release at pH 6.8

| SMILES | Ki |
| --- | --- |
| [N-]=[N+]=NCC(=O)N[C@@H]1O[C@H](CO)[C@@H](O)[C@H](O)[C@H]1O | 49 µM |
| O=C(NC(=O)c1ccc(Cl)cc1)N[C@@H]1O[C@H](CO)[C@@H](O)[C@H](O)[C@H]1O | 4.4 µM |
| O=C(NC(=O)c1ccc(-c2ccccc2)cc1)N[C@@H]1O[C@H](CO)[C@@H](O)[C@H](O)[C@H]1O | 3.7 µM |
| O=C(N[C@@H]1O[C@H](CO)[C@@H](O)[C@H](O)[C@H]1O)C(F)(F)F | 75 µM |
| COC(=O)N[C@@H]1O[C@H](CO)[C@@H](O)[C@H](O)[C@H]1O | 210 µM |
| O=C(O)CCC(=O)N[C@@H]1O[C@H](CO)[C@@H](O)[C@H](O)[C@H]1O | 20 µM |
| COc1ccc(C(=O)NC(=O)N[C@@H]2O[C@H](CO)[C@@H](O)[C@H](O)[C@H]2O)cc1 | 3.2 µM |
| COC(=O)c1ccc(C(=O)NC(=O)N[C@@H]2O[C@H](CO)[C@@H](O)[C@H](O)[C@H]2O)cc1 | 4 µM |
| O=C(NC(=O)c1ccc(C(=O)OCc2ccccc2)cc1)N[C@@H]1O[C@H](CO)[C@@H](O)[C@H](O)[C@H]1O | 150 µM |
| O=C(NC(=O)c1ccc(C(=O)O)cc1)N[C@@H]1O[C@H](CO)[C@@H](O)[C@H](O)[C@H]1O | 85 µM |
| CC(=O)NC(=O)N[C@@H]1O[C@H](CO)[C@@H](O)[C@H](O)[C@H]1O | 370 µM |
| NC(=O)NC1O[C@H](CO)[C@@H](O)[C@H](O)[C@H]1O (single isomer, unassigned) | 140 µM |

Target: T1, Glycogen phosphorylase, muscle form
Remark: another data set of the same source
Description: as §1

| SMILES | Ki |
| --- | --- |
| O=C(N[C@H]1O[C@H](CO)[C@@H](O)[C@H](O)[C@H]1O)C(F)(F)F | Not Active |
